According to ChEMBL document CHEMBL2440076, “New triarylpyrazoles as broad-spectrum anticancer agents: design, synthesis, and biological evaluation” (Eur J Med Chem, 2013):

Columns and labels:
[1] = Growth inhibition of human Hs 578T cells after 48 hrs by sulforhodamine B assay; format: functional
KM12 = experiment: Growth inhibition of human KM12 cells after 48 hrs by sulforhodamine B assay; format: functional, cell-based; settings: KM12, 48 h
HCT-15 = experiment: Growth inhibition of human HCT15 cells assessed as cell growth at 10 uM after 48 hrs by sulforhodamine B assay; format: functional; settings: HCT-15, 48 h, read-out: Activity
HOP-92 [2] = experiment: Growth inhibition of human HOP92 cells after 48 hrs by sulforhodamine B assay; format: functional, cell-based; settings: HOP-92, 48 h
MDA-MB-468 [3] = experiment: Growth inhibition of human MDA-MB-468 cells assessed as cell growth at 10 uM after 48 hrs by sulforhodamine B assay; format: functional; settings: MDA-MB-468, 48 h, read-out: Activity
SK-MEL-2 [4] = experiment: Growth inhibition of human SK-MEL-2 cells assessed as cell growth at 10 uM after 48 hrs by sulforhodamine B assay; format: functional; settings: SK-MEL-2, 48 h, read-out: Activity
SNB-19 = experiment: Growth inhibition of human SNB19 cells assessed as cell growth at 10 uM after 48 hrs by sulforhodamine B assay; format: functional; settings: SNB-19, 48 h, read-out: Activity
TK-10 [5] = experiment: Growth inhibition of human TK10 cells after 48 hrs by sulforhodamine B assay; format: functional; settings: TK-10, 48 h
IGROV-1 = experiment: Growth inhibition of human IGROV1 cells assessed as cell growth at 10 uM after 48 hrs by sulforhodamine B assay; format: functional; settings: IGROV-1, 48 h, read-out: Activity
SK-MEL-2 [6] = experiment: Growth inhibition of human SK-MEL-2 cells after 48 hrs by sulforhodamine B assay; format: functional; settings: SK-MEL-2, 48 h
K562 [7] = experiment: Growth inhibition of human K562 cells after 48 hrs by sulforhodamine B assay; format: functional; settings: K562, 48 h
NCI-H460 = experiment: Growth inhibition of human NCI-H460 cells assessed as cell growth at 10 uM after 48 hrs by sulforhodamine B assay; format: functional; settings: NCI-H460, 48 h, read-out: Activity
MDA-MB-231 = experiment: Growth inhibition of human MDA-MB-231 cells assessed as cell growth at 10 uM after 48 hrs by sulforhodamine B assay; format: functional; settings: MDA-MB-231, 48 h, read-out: Activity
HOP-92 [8] = experiment: Growth inhibition of human HOP92 cells assessed as cell growth at 10 uM after 48 hrs by sulforhodamine B assay; format: functional; settings: HOP-92, 48 h, read-out: Activity
K562 [9] = experiment: Growth inhibition of human K562 cells assessed as cell growth at 10 uM after 48 hrs by sulforhodamine B assay; format: functional; settings: K562, 48 h, read-out: Activity
DU-145 = experiment: Growth inhibition of human DU145 cells after 48 hrs by sulforhodamine B assay; format: functional; settings: DU-145, 48 h
[10] = Growth inhibition of human HCC2998 cells assessed as cell growth at 10 uM after 48 hrs by sulforhodamine B assay; format: functional; settings: HCC 2998, 48 h, read-out: Activity
LOX IMVI = experiment: Growth inhibition of human LOXIMVI cells after 48 hrs by sulforhodamine B assay; format: functional
MCF7 = experiment: Growth inhibition of human MCF7 cells after 48 hrs by sulforhodamine B assay; format: functional; settings: MCF7, 48 h
T47D = experiment: Growth inhibition of human T47D cells after 48 hrs by sulforhodamine B assay; format: functional
SN12C = experiment: Growth inhibition of human SN12C cells after 48 hrs by sulforhodamine B assay; format: functional
HL-60(TB) = experiment: Growth inhibition of human HL-60(TB) cells after 48 hrs by sulforhodamine B assay; format: functional; settings: HL-60, 48 h
A549 [11] = experiment: Growth inhibition of human A549/ATCC cells after 48 hrs by sulforhodamine B assay; format: functional; settings: A549, 48 h
CCRF-CEM = experiment: Growth inhibition of human CCRF-CEM cells assessed as cell growth at 10 uM after 48 hrs by sulforhodamine B assay; format: functional; settings: read-out: Activity
SNB-75 = experiment: Growth inhibition of human SNB75 cells after 48 hrs by sulforhodamine B assay; format: functional; settings: SNB-75, 48 h
A549 [12] = experiment: Growth inhibition of human A549/ATCC cells assessed as cell growth at 10 uM after 48 hrs by sulforhodamine B assay; format: functional; settings: A549, 48 h, read-out: Activity
OVCAR-3 = experiment: Growth inhibition of human OVCAR3 cells after 48 hrs by sulforhodamine B assay; format: functional, cell-based; settings: OVCAR-3, 48 h
NCI-H226 = experiment: Growth inhibition of human NCI-H226 cells after 48 hrs by sulforhodamine B assay; format: functional; settings: NCI-H226, 48 h
TK-10 [13] = experiment: Growth inhibition of human TK10 cells assessed as cell growth at 10 uM after 48 hrs by sulforhodamine B assay; format: functional; settings: TK-10, 48 h, read-out: Activity
RPMI-8226 = experiment: Growth inhibition of human RPMI8226 cells after 48 hrs by sulforhodamine B assay; format: functional, cell-based; settings: RPMI-8226, 48 h
NCI-H322M = experiment: Growth inhibition of human NCI-H322M cells after 48 hrs by sulforhodamine B assay; format: functional
RXF 393 = experiment: Growth inhibition of human RXF393 cells assessed as cell growth at 10 uM after 48 hrs by sulforhodamine B assay; format: functional; settings: RXF 393, 48 h, read-out: Activity
Malme-3M = experiment: Growth inhibition of human MALME-3M cells assessed as cell growth at 10 uM after 48 hrs by sulforhodamine B assay; format: functional; settings: read-out: Activity
MDA-MB-468 [14] = experiment: Growth inhibition of human MDA-MB-468 cells after 48 hrs by sulforhodamine B assay; format: functional, cell-based; settings: MDA-MB-468, 48 h
[15] = read-out: LC50 (the source's name)

## COc1cc(-c2nn(-c3cccc(NC(=O)c4ccc(Cl)c(C(F)(F)F)c4)c3)cc2-c2ccncc2)ccc1Cl
[1]
  GI50: 2.17 µM
  TGI: > 32.5 µM
[1]; [15]
  CC50: > 32.5 µM
KM12
  GI50: 2.06 µM
  TGI: > 32.5 µM
KM12; [15]
  CC50: > 32.5 µM
HCT-15
  growth at 10 µM: 51.7%
HOP-92 [2]
  GI50: 0.665 µM
  IC50: 0.67 µM
  LC50: > 32.5 µM
  TGI: 3.23 µM
MDA-MB-468 [3]
  growth at 10 µM: 54.4%
SK-MEL-2 [4]
  growth at 10 µM: 18.9%
SNB-19
  growth at 10 µM: 66%
TK-10 [5]
  GI50: 20.4 µM
  TGI: > 32.5 µM
TK-10 [5]; [15]
  CC50: > 32.5 µM
IGROV-1
  growth at 10 µM: 48.9%
SK-MEL-2 [6]
  GI50: 1.9 µM
  LC50 (50% lethal concentration): > 32.5 µM
  TGI: 19.7 µM
K562 [7]
  GI50: 1.61 µM
  TGI: > 32.5 µM
K562 [7]; [15]
  CC50: > 32.5 µM
NCI-H460
  growth at 10 µM: 25.4%
MDA-MB-231
  growth at 10 µM: 25.8%
HOP-92 [8]
  growth at 10 µM: 22.5%
K562 [9]
  growth at 10 µM: 8.65%
DU-145
  GI50: 6.39 µM
  LC50: > 32.5 µM
  TGI: > 32.5 µM
[10]
  growth at 10 µM: -8.08%
LOX IMVI
  GI50: 1.92 µM
  LC50: > 32.5 µM
  TGI: > 32.5 µM
MCF7
  GI50: 2.24 µM
  LC50: > 32.5 µM
  TGI: > 32.5 µM
T47D
  GI50: 2.05 µM
  TGI: > 32.5 µM
T47D; [15]
  CC50: > 32.5 µM
SN12C
  GI50: 11.2 µM
  TGI: > 32.5 µM
SN12C; [15]
  CC50: > 32.5 µM
HL-60(TB)
  GI50: 5.48 µM
  TGI: > 32.5 µM
HL-60(TB); [15]
  CC50: > 32.5 µM
A549 [11]
  GI50: 2.4 µM
  LC50 (concentration killing 50% of starting cells): > 32.5 µM
  TGI: > 32.5 µM
CCRF-CEM
  growth at 10 µM: 12.4%
SNB-75
  GI50: 2.19 µM
  LC50 (lethal concentration, 50% net cell kill): > 32.5 µM
  TGI: 29.2 µM
A549 [12]
  growth at 10 µM: 23.3%
OVCAR-3
  GI50: 2.42 µM
  IC50: 2.42 µM
  TGI: 19.8 µM
OVCAR-3; [15]
  CC50: > 32.5 µM
NCI-H226
  GI50: 5.9 µM
  TGI: > 32.5 µM
NCI-H226; [15]
  CC50: > 32.5 µM
TK-10 [13]
  growth at 10 µM: 69.5%
RPMI-8226
  GI50: 1.62 µM
  IC50: 1.62 µM
  TGI: > 32.5 µM
RPMI-8226; [15]
  CC50: > 32.5 µM
NCI-H322M
  GI50: 12.8 µM
  TGI: > 32.5 µM
NCI-H322M; [15]
  CC50: > 32.5 µM
RXF 393
  growth at 10 µM: -0.4%
Malme-3M
  growth at 10 µM: 16.8%
MDA-MB-468 [14]
  GI50: 3.69 µM
  IC50: 3.69 µM
  TGI: > 32.5 µM
MDA-MB-468 [14]; [15]
  CC50: > 32.5 µM
